Read-outs that look alike come from different tables or passages of the source.
What was measured:
[1] = test system: glutathione and protein from human myeloperoxidase and human leucocytes
horseradish peroxidase [2] = molecular target: T1, horseradish peroxidase (Armoracia rusticana, UniProt P00433); test: Electron spin resonance spectroscopy of radicals in a peroxidase system; conditions: for Effect on ascorbyl radical concentration (ESR): 1 mM added to ascorbate/clozapine/horseradish peroxidase/hydrogen peroxide system
T1 sequence (P00433 31-338 limits assumed): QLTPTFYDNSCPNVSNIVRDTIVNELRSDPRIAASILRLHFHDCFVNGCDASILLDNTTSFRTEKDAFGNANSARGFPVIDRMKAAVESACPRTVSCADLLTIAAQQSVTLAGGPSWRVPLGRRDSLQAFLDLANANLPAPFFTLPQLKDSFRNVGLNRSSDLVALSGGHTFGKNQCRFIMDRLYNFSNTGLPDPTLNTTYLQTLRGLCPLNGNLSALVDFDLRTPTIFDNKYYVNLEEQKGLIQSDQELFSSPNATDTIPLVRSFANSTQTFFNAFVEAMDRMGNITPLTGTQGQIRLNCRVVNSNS

horseradish peroxidase [3] = molecular target: T1, horseradish peroxidase; test: Clozapine metabolism by peroxidase, disappearance of UV absorption at 290 nm; format: biochemical
[4] = test system: horseradish peroxidase (or human myeloperoxidase); format: biochemical
Description: (§1) Oxygen consumption has also been observed when horseradish peroxidase was replaced with human myeloperoxidase (10 units) and GSH with NADPH (10 mM).

[5] = molecular target: horseradish peroxidase (or human myeloperoxidase) (Homo sapiens, UniProt P05164); format: biochemical; conditions: clozapine 100 μM, human myeloperoxidase 10 units, NADPH 10 mM, in place of horseradish peroxidase and GSH
horseradish peroxidase (or human myeloperoxidase) (Homo sapiens, UniProt P05164), sequence (P05164 165-278 limits assumed): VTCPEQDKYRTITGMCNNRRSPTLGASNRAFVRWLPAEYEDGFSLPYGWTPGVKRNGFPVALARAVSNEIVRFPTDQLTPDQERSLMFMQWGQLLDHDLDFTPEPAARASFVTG
horseradish peroxidase (or human myeloperoxidase) (Homo sapiens, UniProt P05164), sequence (P05164 279-745 limits assumed): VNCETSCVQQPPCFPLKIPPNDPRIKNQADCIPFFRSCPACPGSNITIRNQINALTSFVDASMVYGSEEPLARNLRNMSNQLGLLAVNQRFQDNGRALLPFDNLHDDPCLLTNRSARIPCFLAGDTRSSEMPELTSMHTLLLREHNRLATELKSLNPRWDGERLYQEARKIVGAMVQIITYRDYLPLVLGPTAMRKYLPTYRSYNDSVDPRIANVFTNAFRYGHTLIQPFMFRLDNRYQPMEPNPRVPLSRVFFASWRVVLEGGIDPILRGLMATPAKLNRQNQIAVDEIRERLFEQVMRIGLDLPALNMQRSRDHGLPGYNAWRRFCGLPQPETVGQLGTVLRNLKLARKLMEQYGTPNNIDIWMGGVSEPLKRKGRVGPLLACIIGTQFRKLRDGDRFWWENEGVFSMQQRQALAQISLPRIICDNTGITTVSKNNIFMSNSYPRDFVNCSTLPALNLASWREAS
Description: as §1

[6] = test system: patients refractory and/or intolerant to classical antipsychotic drug treatment; conditions: cited from earlier work
[7] = test system: human myeloperoxidase or horseradish peroxidase; test: HPLC with on-line radioactivity detection of tritium-labeled clozapine incubated with peroxidase and hydrogen peroxide; format: biochemical
Description: For HPLC a reversed phase column (Supelco Inc., Bellefonte Pa. USA LC-18-DB, 5 μm, 250×4.6 mm) was used. The mobile phase consisted of (NH4)2 CO3 buffer pH 8.5 (solvent A) and acetonitrile (solvent B). The proportion of solvent B was 0% for 5 minutes and was increased to reach 20% at 10 minutes, 24% at 60 minutes and 80% at 100 minutes. […] Instead two radioactive peaks eluting at 28 and 53 minutes from the HPLC appeared.

[8] = test system: glutathione and protein from human myeloperoxidase and human leucocytes; test: Reactive species formation and covalent binding of clozapine metabolites, tests as for clozapine
[9] = test system: granulocytes/polymorphonuclear leucocytes (PMN's); test: Covalent binding of radiolabeled clozapine to isolated PMN's; format: cell-based, human
Description: 4) In another test heparinized peripheral blood was obtained from normal, healthy male volunteers, and granulocytes/polymorphonuclear leucocytes (PMN's) were isolated within 1-2 hours using an isolation kit (United Technologies Packard, Los Alamos, USA). PMN's were suspended in RPMI 1640 (Gibco, Basel, Switzerland) medium and adjusted to about 4×10^6 cells/ml before fetal calf serum was added (10% v/v).

With `C[N+]1([O-])CCN(C2=Nc3cc(Cl)ccc3Nc3ccccc32)CC1` [8-chloro-11-(4-methyl-4-oxo-1-piperazinyl)-5H-dibenzo[b,e][1,4]diazepine] as the compound, how does the “Formation of reactive species” value [1] read?
The value was “form reactive species such as free radicals”.

For `CN1CCN(C2=Nc3cc(Cl)ccc3Nc3ccccc32)CC1` [clozapine, 8-chloro-11-(4-methyl-1-piperazinyl)-5H-dibenzo[b,e][1,4]diazepine], which “Increase in steady-state concentration of the ascorbyl radical when clozapine is present” value (horseradish peroxidase [2]; 100 μM sodium ascorbate, 100 μM clozapine, horseradish peroxidase 8.3 μg/ml, hydrogen peroxide 50 μM, pH 7.4) is on record?
Its value is “over two fold”.

And the “Glutathionyl thiyl radicals by ESR (DMPO trapping)” value (horseradish peroxidase [2]; absence of sodium ascorbate, DMPO 100 mM)?
Its value is “detected”.

And the “Clozapine metabolism by peroxidases (disappearance of UV absorption at 290 nm)” value (horseradish peroxidase [3]; clozapine 100 μM, 1-5 μg/ml horseradish peroxidase, 50 μM hydrogen peroxide, pH 7.4)?
Its value is “demonstrated”.

And the “Oxygen consumption as indicator of radical formation” value ([4]; clozapine 100 μM, horseradish peroxidase 5 μg/ml, GSH 10 mM, pH 7.4)?
Its value is “indicates an initial clozapine radical formation”.

What about the Oxygen consumption [5] of the same compound?
Its Oxygen consumption is “observed”.

What about the “Antipsychotic efficacy compared with standard neuroleptics” value ([6]; clinical studies) of the same compound?
The value was “superior”.

And the “Patients refractory to standard neuroleptics who significantly improved” value ([6]; clozapine treatment)?
The value was “approximately 30%”.

What about the “Risk of granulocytopenia and agranulocytosis” value ([6]; clozapine treatment) of the same compound?
The value was “apparent increased risk”.

And the “Covalent binding of clozapine-derived material to the enzyme (coelution of radioactivity with enzymatic protein)” value ([7]; clozapine 100 μM, enzyme and hydrogen peroxide present)?
The value was “Covalent binding of clozapine-derived material to the enzyme was indicated”.

Which “Effect on covalent binding of clozapine and its metabolites” value ([8]; intact human cells, radical scavenger) does the source give for `O=C1O[C@H]([C@@H](O)CO)C(O)=C1O` [ascorbic acid, L-ascorbic acid] here?
Its value is “prevented”.

With `Clc1ccc2c(c1)N=C(N1CCNCC1)c1ccccc1N2` [8-chloro-11-(1-piperazinyl)-5H-dibenzo[b,e][1,4]diazepine] as the compound, how does the “Formation of reactive species” value [1] read?
The value was “form reactive species such as free radicals”.

With `CSc1ccc2c(c1)N=C(N1CCN(C)CC1)c1ccccc1N2` [8-methylthio-11-(4-methyl-1-piperazinyl)-5H-dibenzo[b,e][1,4]diazepine] as the compound, how does the “Formation of reactive species” value [1] read?
The value was “form reactive species such as free radicals”.

With `N[C@@H](CCC(=O)N[C@@H](CS)C(=O)NCC(=O)O)C(=O)O` [glutathione] as the compound, how does the “Effect on ascorbyl radical concentration (ESR)” value (horseradish peroxidase [2]) read?
Its value is “only marginally affected”.

And the “Effect on covalent binding to the enzymatic protein and metabolite formation” value ([7]; GSH 10 mM, pH 7.4, added to standard incubation)?
Its value is “reduced but to a lesser extent”.

For `CN1CCN(C2=Nc3cc(O)ccc3Nc3ccccc32)CC1` [8-hydroxy-11-(4-methyl-1-piperazinyl)-5H-dibenzo[b,e][1,4]diazepine], which “Formation of reactive species” value ([8]; tests as for clozapine, worded "can also be shown") is on record?
Its value is “form reactive species such as free radicals”.

For `CSc1ccc2c(c1)N=C(N1CCNCC1)c1ccccc1N2` [8-methylthio-11-(1-piperazinyl)-5H-dibenzo-[b,e][1,4]diazepine], which “Formation of reactive species” value [1] is on record?
Its value is “form reactive species such as free radicals”.

Which “Formation of reactive species” value [1] does the source give for `Oc1ccc2c(c1)N=C(N1CCNCC1)c1ccccc1N2` [8-hydroxy-11-(1-piperazinyl)-5H-dibenzo[b,e][1,4]diazepine] here?
The value was “form reactive species such as free radicals”.

Which “Formation of reactive species” value [1] does the source give for `CN1CCN(C2=Nc3cc(Cl)c(O)cc3Nc3ccccc32)CC1` [7-hydroxy-8-chloro-11-(4-methyl-1-piperazinyl)-5H-dibenzo[b,e][1,4]diazepine] here?
The value was “form reactive species such as free radicals”.

Which “Effect on metabolism of clozapine (UV signal changes)” value (horseradish peroxidase [3]; sodium ascorbate 0.7 mM added to the incubation) does the source give for `O=C1O[C@H]([C@@H](O)CO)C([O-])=C1O.[Na+]` [sodium ascorbate] here?
The value was “reversed”.

What about the “Effect on oxygen consumption i.e. initial clozapine radical formation” value ([4]; sodium ascorbate 0.7 mM) of the same compound?
Its value is “prevented”.

What about the “Effect on clozapine metabolism (metabolite formation)” value ([7]; sodium ascorbate 0.7 mM) of the same compound?
Its value is “completely reversed”.

What about the “Effect on covalent binding of clozapine to enzymatic protein” value ([7]; sodium ascorbate 0.7 mM) of the same compound?
The value was “no radioactivity coeluted with the enzymatic protein”.

And the “Effect on clozapine binding to PMN's” value ([9]; 5 mM sodium ascorbate, incubations containing opsonized zymosan)?
Its value is “reduction of clozapine binding to PMN's”.

And the “Effect on covalent binding of clozapine to PMN's” value ([9]; radiolabeled clozapine and sodium ascorbate incubated together with PMN's, worded "may also be shown")?
The value was “reduction of covalent binding”.

Which “Effect on ascorbyl radical concentration (ESR)” value (horseradish peroxidase [2]) does the source give for `NC(=O)C1=CN([C@@H]2O[C@H](COP(=O)(O)OP(=O)(O)OC[C@H]3O[C@@H](n4cnc5c(N)ncnc54)[C@H](OP(=O)(O)O)[C@@H]3O)[C@@H](O)[C@H]2O)C=CC1` [NADPH] here?
Its value is “almost absent”.
